Series [1] has as its system CYP3A4. As to the kind of experiment: Phase 1 clinical DDI study, midazolam probe with or without relacorilant. Type of series: in vivo, human.
For a further series, the target named is T1, CYP2C8 (Homo sapiens, UniProt P10632).
T1 sequence (P10632 1-490): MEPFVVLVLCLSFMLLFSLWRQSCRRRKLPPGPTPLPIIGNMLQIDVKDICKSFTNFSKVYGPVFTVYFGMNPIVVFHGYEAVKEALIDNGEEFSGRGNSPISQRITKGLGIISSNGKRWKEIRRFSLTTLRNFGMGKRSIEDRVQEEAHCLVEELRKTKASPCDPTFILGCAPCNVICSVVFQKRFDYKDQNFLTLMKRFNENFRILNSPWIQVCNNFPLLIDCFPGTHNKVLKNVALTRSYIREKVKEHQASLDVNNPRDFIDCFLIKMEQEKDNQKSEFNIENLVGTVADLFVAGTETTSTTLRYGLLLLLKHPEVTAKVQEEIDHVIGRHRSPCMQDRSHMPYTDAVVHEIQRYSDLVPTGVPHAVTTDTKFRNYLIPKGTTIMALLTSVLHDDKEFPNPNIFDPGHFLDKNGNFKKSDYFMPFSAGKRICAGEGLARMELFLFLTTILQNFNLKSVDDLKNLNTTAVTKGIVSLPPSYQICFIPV
As to the kind of experiment: Phase 1 clinical DDI study, pioglitazone probe with or without relacorilant. Type of series: in vivo.

The subject of the next series is CYP1A2 messenger RNA. As to the kind of experiment: In vitro CYP induction assay, messenger RNA in cryopreserved human hepatocytes. The series is classed as in vitro ADME. The note with it: 3 donors.
The test system of another series is CYP2B6 messenger RNA. Described as above. Type of series: in vitro ADME. The note with it: 3 donors.
The next series relates to progesterone receptor. The note with it: background statement; cited from earlier work.
For series [2], the target named is CYP3A4 (Homo sapiens, UniProt P08684). The series is described as follows: biochemical.
Sequence of CYP3A4 (Homo sapiens, UniProt P08684) (P08684 whole entry): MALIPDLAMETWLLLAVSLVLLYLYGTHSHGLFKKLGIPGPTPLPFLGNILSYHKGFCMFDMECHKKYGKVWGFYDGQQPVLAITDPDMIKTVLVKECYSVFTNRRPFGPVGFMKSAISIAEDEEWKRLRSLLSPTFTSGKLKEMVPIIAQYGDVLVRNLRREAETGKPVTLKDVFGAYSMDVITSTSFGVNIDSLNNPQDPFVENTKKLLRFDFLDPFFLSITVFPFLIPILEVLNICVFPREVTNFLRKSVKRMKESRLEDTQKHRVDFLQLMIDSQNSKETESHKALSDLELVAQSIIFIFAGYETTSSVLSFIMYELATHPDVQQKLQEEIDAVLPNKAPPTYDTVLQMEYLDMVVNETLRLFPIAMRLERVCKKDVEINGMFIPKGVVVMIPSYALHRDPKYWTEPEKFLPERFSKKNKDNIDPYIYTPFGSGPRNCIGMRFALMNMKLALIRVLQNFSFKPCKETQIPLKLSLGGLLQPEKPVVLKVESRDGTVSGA
Another series deals with CYP2C9 (Homo sapiens, UniProt P11712). The note with it: background statement; cited from earlier work.
Sequence of CYP2C9 (P11712 whole entry): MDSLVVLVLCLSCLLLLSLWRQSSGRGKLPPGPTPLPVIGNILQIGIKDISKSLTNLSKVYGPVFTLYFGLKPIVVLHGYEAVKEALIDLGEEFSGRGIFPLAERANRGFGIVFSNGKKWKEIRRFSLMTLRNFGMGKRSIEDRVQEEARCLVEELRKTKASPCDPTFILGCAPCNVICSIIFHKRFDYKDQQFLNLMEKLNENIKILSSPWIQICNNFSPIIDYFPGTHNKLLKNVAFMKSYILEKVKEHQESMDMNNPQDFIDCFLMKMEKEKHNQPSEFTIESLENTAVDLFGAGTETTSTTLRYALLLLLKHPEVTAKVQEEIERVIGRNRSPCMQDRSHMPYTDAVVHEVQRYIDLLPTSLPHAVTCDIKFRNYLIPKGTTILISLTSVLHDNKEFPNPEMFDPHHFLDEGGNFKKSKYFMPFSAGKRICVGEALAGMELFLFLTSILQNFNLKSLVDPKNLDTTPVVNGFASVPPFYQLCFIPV
Where [3] appears, read: both, human, plasma, po, 2.5 mg, probe midazolam.
[4] abbreviates: both, human, plasma, po, 15 mg, probe pioglitazone.
[5] abbreviates: pioglitazone + relacorilant (day 15) compared to pioglitazone alone (day 2).
Where [6] appears, read: pioglitazone + relacorilant (day 15) vs pioglitazone alone (day 2).

The term AUC(0-inf) denotes total exposure, with the tail of the curve extrapolated. Broadly, the AUC(0-t) is the area under the concentration-time curve up to a stated or last time point. Read a low AUC(0-t) as less exposure. By Cmax is commonly meant the highest concentration seen after dosing. `Cc1ncc2n1-c1ccc(Cl)cc1C(c1ccccc1F)=NC2` [Midazolam, midazolam] came in with an area under the curve AUC(0-inf) with CYP3A4 [1] (both, human, plasma, po, 2.5 mg) of 36.4 ng·h/mL. In the series on CYP3A4 [1] (setting [3]), the AUC(0-t) was 34.2 ng·h/mL and the Cmax amounted to 12.7 ng/mL.
What is called Tmax is the time at which the peak concentration occurs. For orientation: half-life means the time in which the quantity being followed falls by half. At CYP2C8 (both, human, plasma, po, 15 mg), `CCc1ccc(CCOc2ccc(CC3SC(=O)NC3=O)cc2)nc1` (centres unmarked) [Pioglitazone, pioglitazone] displayed an area under the curve AUC(0-inf) of 5650 ng·h/mL. At CYP2C8 (setting [4]), the area under the curve AUC(0-t) worked out at 5530 ng·h/mL, the Cmax was 525 ng/mL, the time to peak (Tmax) worked out at 2 h and the half-life was 10.4 h. At CYP2C8 (setting [5]), the “GLSM AUCinf lower with relacorilant than alone, pioglitazone” value is on record as about 25%; the “GLSM AUClast lower with relacorilant than alone, pioglitazone” value is listed as about 25%; the “GLSM Cmax lower with relacorilant than alone, pioglitazone” value was “approximately 22%”. On CYP2C8 (setting [6]), the “AUCinf GLSM Ratio (90%CI), pioglitazone” value is recorded as 0.748 (0.681‐0.822); the “AUClast GLSM Ratio (90%CI), pioglitazone” value was 0.747 (0.681‐0.820); the “Cmax GLSM Ratio (90%CI), pioglitazone” value is recorded as 0.778 (0.697‐0.870).
Usually IC50 stands for the midpoint of a concentration-inhibition curve. A high value points to weaker potency in that assay. Consider `Cn1cc(S(=O)(=O)N2CCC3=Cc4c(cnn4-c4ccc(F)cc4)C[C@]3(C(=O)c3cc(C(F)(F)F)ccn3)C2)cn1` [Relacorilant, (R)‐(1‐(4‐fluorophenyl)‐6‐((1‐methyl‐1H‐pyrazol‐4‐yl)sulfonyl)‐4,4a,5,6,7,8‐hexahydro‐1H‐pyrazolo[3,4‐g]isoquinolin‐4a‐yl)(4‐(trifluoromethyl)pyridin‐2‐yl)methanone], for which the “induction of CYP1A2 (in words)” value in the series with CYP1A2 messenger RNA is recorded as “dose‐responsive induction of CYP1A2 was observed in all donors”. Also, the “induction of CYP2B6 (in words)” value in the series on CYP2B6 messenger RNA is given as “No induction of CYP2B6 was observed in any donor”. Further, the “CYP3A inhibition in vivo (in words)” value in the series with CYP3A4 [1] (healthy subjects, relacorilant 350 mg once daily, midazolam probe) is listed as “strong CYP3A inhibitor”. In addition, in the series with progesterone receptor, the “affinity for the progesterone receptor (in words)” value is “no affinity for the progesterone receptor”. On CYP3A4 [2], this compound had an IC50 of 1320 nM.
Regarding `CC#C[C@]1(O)CC[C@H]2[C@@H]3CCC4=CC(=O)CCC4=C3[C@@H](c3ccc(N(C)C)cc3)C[C@@]21C` [mifepristone], at CYP2C9, the “CYP2C9 inhibition in vivo (in words)” value was “inhibits both CYP2C8 and CYP2C9 in vivo”.

The values above are taken from publication PMC7818505 (Journal of Clinical Pharmacology, 2020).
